Tested on: Detoxification protein genes
Experiment: DNA chip mRNA expression in yeast, detoxification protein genes (Table 8)
Assay type: cell-based, Saccharomyces cerevisiae S288C
In short: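 First, S288C yeast grown in YPD at 25° C. are dosed in log phase with one toxicant (growth-inhibiting, not lethal) for 2 h. Next, total RNA is extracted and poly(A) mRNA isolated and reverse-transcribed with Cy3/Cy5-dUTP. Finally, whole-genome chip fluorescence is read relative to unexposed cells.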

CCCCCCCCCCCCc1ccc(S(=O)(=O)[O-])cc1.[Na+] [(17), sodium dodecylbenzosulfonate]
The level of expressed mRNA in the presence of chemical substance/The level of expressed mRNA in the absence of chemical substance (yeast gene YBL064C): 1.2 | The level of expressed mRNA in the presence of chemical substance/The level of expressed mRNA in the absence of chemical substance (yeast gene YBR008C): 2.0 | The level of expressed mRNA in the presence of chemical substance/The level of expressed mRNA in the absence of chemical substance (yeast gene YBR145W): 1.7 | The level of expressed mRNA in the presence of chemical substance/The level of expressed mRNA in the absence of chemical substance (yeast gene YBR244W): 1.2 | The level of expressed mRNA in the presence of chemical substance/The level of expressed mRNA in the absence of chemical substance (yeast gene YBR293W): 1.0 | The level of expressed mRNA in the presence of chemical substance/The level of expressed mRNA in the absence of chemical substance (yeast gene YCL035C): 2.6 | The level of expressed mRNA in the presence of chemical substance/The level of expressed mRNA in the absence of chemical substance (yeast gene YCL069W): 1.0 | The level of expressed mRNA in the presence of chemical substance/The level of expressed mRNA in the absence of chemical substance (yeast gene YCR083W): 1.3 | The level of expressed mRNA in the presence of chemical substance/The level of expressed mRNA in the absence of chemical substance (yeast gene YDL100C): 1.2 | The level of expressed mRNA in the presence of chemical substance/The level of expressed mRNA in the absence of chemical substance (yeast gene YDL168W): 0.9 | The level of expressed mRNA in the presence of chemical substance/The level of expressed mRNA in the absence of chemical substance (yeast gene YDR256C): 1.0 | The level of expressed mRNA in the presence of chemical substance/The level of expressed mRNA in the absence of chemical substance (yeast gene YDR453C): 1.0 | The level of expressed mRNA in the presence of chemical substance/The level of expressed mRNA in the absence of chemical substance (yeast gene YDR513W): 1.3 | The level of expressed mRNA in the presence of chemical substance/The level of expressed mRNA in the absence of chemical substance (yeast gene YDR538W): 1.0 | The level of expressed mRNA in the presence of chemical substance/The level of expressed mRNA in the absence of chemical substance (yeast gene YEL027W): 1.0 | The level of expressed mRNA in the presence of chemical substance/The level of expressed mRNA in the absence of chemical substance (yeast gene YEL065W): 0.7 | The level of expressed mRNA in the presence of chemical substance/The level of expressed mRNA in the absence of chemical substance (yeast gene YER185W): 2.6 | The level of expressed mRNA in the presence of chemical substance/The level of expressed mRNA in the absence of chemical substance (yeast gene YFL050C): 0.8 | The level of expressed mRNA in the presence of chemical substance/The level of expressed mRNA in the absence of chemical substance (yeast gene YGL013C): 1.1 | The level of expressed mRNA in the presence of chemical substance/The level of expressed mRNA in the absence of chemical substance (yeast gene YGL254W): 0.8 | The level of expressed mRNA in the presence of chemical substance/The level of expressed mRNA in the absence of chemical substance (yeast gene YGR088W): 0.9 | The level of expressed mRNA in the presence of chemical substance/The level of expressed mRNA in the absence of chemical substance (yeast gene YGR138C): 0.7 | The level of expressed mRNA in the presence of chemical substance/The level of expressed mRNA in the absence of chemical substance (yeast gene YGR197C): 1.7 | The level of expressed mRNA in the presence of chemical substance/The level of expressed mRNA in the absence of chemical substance (yeast gene YGR209C): 1.3 | The level of expressed mRNA in the presence of chemical substance/The level of expressed mRNA in the absence of chemical substance (yeast gene YGR224W): 2.8 | The level of expressed mRNA in the presence of chemical substance/The level of expressed mRNA in the absence of chemical substance (yeast gene YHL040C): 1.4 | The level of expressed mRNA in the presence of chemical substance/The level of expressed mRNA in the absence of chemical substance (yeast gene YHL047C): 1.2 | The level of expressed mRNA in the presence of chemical substance/The level of expressed mRNA in the absence of chemical substance (yeast gene YHR008C): 0.9 | The level of expressed mRNA in the presence of chemical substance/The level of expressed mRNA in the absence of chemical substance (yeast gene YHR048W): 0.7 | The level of expressed mRNA in the presence of chemical substance/The level of expressed mRNA in the absence of chemical substance (yeast gene YHR053C): 1.0 | The level of expressed mRNA in the presence of chemical substance/The level of expressed mRNA in the absence of chemical substance (yeast gene YHR055C): 0.9 | The level of expressed mRNA in the presence of chemical substance/The level of expressed mRNA in the absence of chemical substance (yeast gene YIR002C): 1.1 | The level of expressed mRNA in the presence of chemical substance/The level of expressed mRNA in the absence of chemical substance (yeast gene YIR038C): 2.8 | The level of expressed mRNA in the presence of chemical substance/The level of expressed mRNA in the absence of chemical substance (yeast gene YJL101C): 0.9 | The level of expressed mRNA in the presence of chemical substance/The level of expressed mRNA in the absence of chemical substance (yeast gene YJR104C): 0.9 | The level of expressed mRNA in the presence of chemical substance/The level of expressed mRNA in the absence of chemical substance (yeast gene YKL026C): 1.6 | The level of expressed mRNA in the presence of chemical substance/The level of expressed mRNA in the absence of chemical substance (yeast gene YKL064W): 1.3 | The level of expressed mRNA in the presence of chemical substance/The level of expressed mRNA in the absence of chemical substance (yeast gene YKR066C): 0.9 | The level of expressed mRNA in the presence of chemical substance/The level of expressed mRNA in the absence of chemical substance (yeast gene YKR105C): 0.8 | The level of expressed mRNA in the presence of chemical substance/The level of expressed mRNA in the absence of chemical substance (yeast gene YKR106W): 0.9 | The level of expressed mRNA in the presence of chemical substance/The level of expressed mRNA in the absence of chemical substance (yeast gene YLL028W): 1.2 | The level of expressed mRNA in the presence of chemical substance/The level of expressed mRNA in the absence of chemical substance (yeast gene YLL057C): 3.0 | The level of expressed mRNA in the presence of chemical substance/The level of expressed mRNA in the absence of chemical substance (yeast gene YLL060C): 1.9 | The level of expressed mRNA in the presence of chemical substance/The level of expressed mRNA in the absence of chemical substance (yeast gene YLR043C): 1.5 | The level of expressed mRNA in the presence of chemical substance/The level of expressed mRNA in the absence of chemical substance (yeast gene YLR046C): 5.2 | The level of expressed mRNA in the presence of chemical substance/The level of expressed mRNA in the absence of chemical substance (yeast gene YML028W): 1.1 | The level of expressed mRNA in the presence of chemical substance/The level of expressed mRNA in the absence of chemical substance (yeast gene YML116W): 1.0 | The level of expressed mRNA in the presence of chemical substance/The level of expressed mRNA in the absence of chemical substance (yeast gene YMR015C): 1.0 | The level of expressed mRNA in the presence of chemical substance/The level of expressed mRNA in the absence of chemical substance (yeast gene YMR038C): 1.2 | The level of expressed mRNA in the presence of chemical substance/The level of expressed mRNA in the absence of chemical substance (yeast gene YNL239W): 1.1 | The level of expressed mRNA in the presence of chemical substance/The level of expressed mRNA in the absence of chemical substance (yeast gene YNL241C): 1.0 | The level of expressed mRNA in the presence of chemical substance/The level of expressed mRNA in the absence of chemical substance (yeast gene YNL259C): 2.6 | The level of expressed mRNA in the presence of chemical substance/The level of expressed mRNA in the absence of chemical substance (yeast gene YOL158C): 1.4 | The level of expressed mRNA in the presence of chemical substance/The level of expressed mRNA in the absence of chemical substance (yeast gene YOR031W): 1.7 | The level of expressed mRNA in the presence of chemical substance/The level of expressed mRNA in the absence of chemical substance (yeast gene YOR153W): 2.5 | The level of expressed mRNA in the presence of chemical substance/The level of expressed mRNA in the absence of chemical substance (yeast gene YOR247W): 1.2 | The level of expressed mRNA in the presence of chemical substance/The level of expressed mRNA in the absence of chemical substance (yeast gene YOR251C): 0.9 | The level of expressed mRNA in the presence of chemical substance/The level of expressed mRNA in the absence of chemical substance (yeast gene YOR273C): 3.2 | The level of expressed mRNA in the presence of chemical substance/The level of expressed mRNA in the absence of chemical substance (yeast gene YPL163C): 1.4 | The level of expressed mRNA in the presence of chemical substance/The level of expressed mRNA in the absence of chemical substance (yeast gene YPR200C): 1.1

Reference: patent US8192962B2, “Processes for detecting toxic substances” (Daikin Industries, Ltd., priority 2001, dated 2012)
